Reference: patent US11384172B2, “Polymer, antimicrobial agent, disinfectant, antimicrobial material, disinfectant material, antimicrobial method, and disinfecting method” (JSR CORPORATION, priority 2015, dated 2022)

How the values were obtained:
Assay in all cases: Antimicrobial and disinfecting properties test (liquid medium dilution series, visual turbidity)
Format in all cases: cell-based
Conditions in all cases: 37° C., 16 hours
[1] = system: E. coli (drug sensitive strain, DH5α)
Procedure: (§1) Into 500 mL of hexane, 10 g of the polymer obtained in each of the above Synthesis Examples was added dropwise over 2 hours, and then vacuum drying was performed at 40° C. for 24 hours. The powder thus obtained was used for a test.
(§2) 30.4 g of a medium (Mueller Hinton II) was weighed out, and dissolved in 800 mL of sterile water, and the resultant mixture was subjected to an autoclave treatment at 121° C. and 2 atm for 15 minutes.
(§3) Each of the bacteria of the following (1) to (8) was suspended in 1 mL of the liquid medium obtained in the above “preparation of liquid medium”, OD600 was measured, and a liquid medium was added so that the amount of bacteria is 1×10^8 cfu/mL to prepare each of the bacterial liquids.
(1) E. coli (drug sensitive strain, DH5α)
(§4) A polymer (A-1) and water were mixed to prepare 10 mg/mL of a polymer aqueous solution. […]
(§5) The turbidity of each of the wells was visually discriminated and the growing state of the bacteria was confirmed. The concentrations of the dilution series, at which it was visually determined that the antimicrobial action and disinfecting action were performed without cloudiness, are shown in Table 3.
(§6) The antimicrobial and the disinfecting properties were evaluated in a similar manner as in Example 1 except that each of the compounds shown in Table 3 was used in place of the polymer (A-1) in Example 1. […]

[2] = system: S. aureus (drug sensitive strain, ATCC29213)
Procedure: as §1, §2, §3
(2) S. aureus (drug sensitive strain, ATCC29213)
as §4, §5, §6

[3] = system: E. coli (NDM-1 producing strain)
Procedure: as §1, §2, §3
(3) E. coli (NDM-1 producing strain)
as §4, §5, §6

[4] = system: E. coli (IMP-1 producing strain, ST131)
Procedure: as §1, §2, §3
(4) E. coli (IMP-1 producing strain, ST131)
as §4, §5, §6

[5] = system: Klebsiella pneumoniae (KPC-2 producing strain, ST258)
Procedure: (5) Klebsiella pneumoniae (KPC-2 producing strain, ST258)
Into 897.6 μL of the prepared liquid medium, 102.4 μL of the above-described polymer aqueous solution was added so that the concentration of the polymer is 1024 μg/mL. This solution was diluted 2 times in wells of a 96-well plate to prepare a dilution series of 1024 μg/mL to 0.015625 μg/mL. Next, 5 μL of a bacterial liquid was added to each of the wells and incubated at 37° C. for 16 hours.

[6] = system: A. baumannii (OXA-23 producing strain, ST2)
Procedure: as §1, §2, §3
(6) A. baumannii (OXA-23 producing strain, ST2)
as §4, §5, §6

[7] = system: Pseudomonas aeruginosa (MP-1 producing strain, ST235)
Procedure: as §1, §2, §3
(7) Pseudomonas aeruginosa (MP-1 producing strain, ST235)
as §4, §5, §6

[8] = system: MRSA (S. aureus methicillin-resistant strain)
Procedure: as §1, §2, §3
(8) MRSA (S. aureus methicillin-resistant strain)
as §4, §5, §6

**Q.** For N=C(N)NC(N)=Nc1ccccc1 [Phenyl biguanide, phenyl biguanide], which “concentration of the dilution series at which antimicrobial and disinfecting action was visually determined without cloudiness” value (“concentration … determined without cloudiness” below) [1] is on record?
**A.** >1024 µg/mL

**Q.** What about the “concentration … determined without cloudiness” value [2] of the same compound?
**A.** >1024 µg/mL

**Q.** And the “concentration … determined without cloudiness” value [3]?
**A.** 1024 µg/mL

**Q.** What about the “concentration … determined without cloudiness” value [4] of the same compound?
**A.** 1024 µg/mL

**Q.** And the “concentration … determined without cloudiness” value [5]?
**A.** >1024 µg/mL

**Q.** And the “concentration … determined without cloudiness” value [6]?
**A.** 1024 µg/mL

**Q.** And the “concentration … determined without cloudiness” value [7]?
**A.** >1024 µg/mL

**Q.** And the “concentration … determined without cloudiness” value [8]?
**A.** >1024 µg/mL
